One assay addresses human Bub1 (Homo sapiens (Human), UniProt O43683). In words: Bub1 high ATP kinase assay (TR-FRET). The format is biochemical. From the text: Bub1-inhibitory activity of compounds of the present invention at a high ATP concentration was quantified employing the Bub1 TR-FRET high ATP kinase assay as described in the following paragraphs.
N-terminally His6-tagged recombinant catalytic domain of human Bub1 (amino acids 704-1085), expressed in insect cells (Hi5) and purified by Ni-NTA affinity chromatography and subsequent size exclusion chromatography, was used as enzyme.

In another assay the test system is Ba/F3-EGFR-insSVD. In words: Ba/F3 cell survival assay, EGFR-insSVD. Particulars: Mus musculus, BaF3, 48 h, read-out: BA/F3 (insSVD) IC50, cell viability, Cell Titer-Glo, 48 h, with 10 ng/mL EGF, without IL-3. The format is cell-based. On the procedure: (§1) 293T cells from ATCC were transfected with pBABEpuro expression constructs for WT EGFR or EGFR-insSVD and pCL-Eco packaging vector using Fugene-6 transfection reagent from Promega. Plates were incubated at 37° C. for 48 h. Retrovirus was harvested by filtering the media supernatant through a 0.45 μm filter.
(§2) Ba/F3 cells purchased from DSMZ were grown in RPMI+10% FBS+10 ng/mL IL-3 and infected with filtered retroviral supernatant at a 1:2 dilution. Polybrene was added to a concentration of 8 μg/mL, plates were spun for 90 min, and incubated overnight at 37° C. 2 μg/mL puromycin was added to the infected cells 24 h after infection and cells were continually grown in the presence of puromycin and 10 ng/mL IL-3. Following stably expressing Ba/F3 cell lines were generated: Ba/F3-EGFR-WT, Ba/F3-EGFR-insSVD, (Ba/F3-vector-control).
For cell survival assays, Ba/F3 cells were grown to a density of 1-2 million cells per mL, spun down and resuspended in media without IL-3, and replated at a concentration 200,000-500,000 cells per mL. The cells ectopically expressing WT EGFR or EGFR-insSVD were plated with 10 ng/mL Millipore Culture grade EGF. The cells ectopically expressing pBABEpuro empty vector were plated with 10 ng/mL IL-3.
2 days later, cells were plated in 50 μL in a 384 well plate at a concentration of 4000 cells per well for cells assayed in the absence of IL-3 and 2000 cells per well for cells assayed in the presence of IL-3. 100 nL of compound was added to each well using a 100 nL pin head, and plates were incubated at 37° C. for 48 h.
Cell viability was measured by adding 20 μL of Cell Titer-Glo Luminescent Cell Viability Reagent diluted 1:3 in PBS. Plates were sealed with Perkin Elmer Top-Seal, inverted several times to mix, and immediately centrifuged at 1000 rpm for 2 min. Plates were incubated in low light conditions for 8-10 min and luminescence was measured.
For orientation: Cellular ATP, detected with luciferase, serves as a proxy for viable cell number.

In the next assay the test system is Ba/F3-EGFR-WT. Nature of the assay: Ba/F3 cell survival assay, WT EGFR. It counts as cell-based. On the procedure:
as §1, §2
The cells ectopically expressing WT EGFR or EGFR-insSVD were plated with 10 ng/mL Millipore Culture grade EGF. The cells ectopically expressing pBABEpuro empty vector were plated with 10 ng/mL IL-3.
100 nL of compound was added to each well using a 100 nL pin head, and plates were incubated at 37° C. for 48 h.
Cell viability was measured by adding 20 μL of Cell Titer-Glo Luminescent Cell Viability Reagent diluted 1:3 in PBS. Plates were sealed with Perkin Elmer Top-Seal, inverted several times to mix, and immediately centrifuged at 1000 rpm for 2 min.

Setting [1] is: read-out: Bub1 high ATP (2 mM) IC50, 2 mM ATP.
Setting [2] is: Mus musculus, BaF3, 48 h, read-out: BA/F3 (wild type) IC50, cell viability, Cell Titer-Glo, 48 h, with 10 ng/mL EGF, without IL-3.
Setting [3] is: read-out: BA/F3 (wild type) IC50, cell viability, Cell Titer-Glo, 48 h, with 10 ng/mL EGF, without IL-3.
The mark [4] stands for this setting: Bub1 high ATP (2 mM) IC50, 2 mM ATP.

Several values for one entry are separate records, joined by “and”; a condition that tells them apart may be missing. Identical values can stand only once. Like-named read-outs stand apart in the source and are kept apart here.

For 18 compounds, IC50 results are on record in patent publication US20240307362A1 (priority 2019, published 2024).

human Bub1, sequence (O43683 704-1085): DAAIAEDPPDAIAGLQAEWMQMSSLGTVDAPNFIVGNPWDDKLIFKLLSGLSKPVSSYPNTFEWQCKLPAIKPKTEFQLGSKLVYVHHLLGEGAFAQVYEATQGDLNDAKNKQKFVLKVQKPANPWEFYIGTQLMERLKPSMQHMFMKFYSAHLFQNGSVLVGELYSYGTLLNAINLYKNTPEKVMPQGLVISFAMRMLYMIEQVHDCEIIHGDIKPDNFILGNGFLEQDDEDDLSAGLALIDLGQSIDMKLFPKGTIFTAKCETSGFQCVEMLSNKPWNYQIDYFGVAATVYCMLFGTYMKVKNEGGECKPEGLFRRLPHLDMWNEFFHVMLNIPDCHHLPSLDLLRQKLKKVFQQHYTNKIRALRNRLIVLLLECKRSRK

As for `COc1c(F)cccc1Nc1c(-c2ccncc2OCC2CCO2)[nH]c2c1C(=O)NCC2` (racemic) [Example 4, 3-(3-fluoro-2-methoxyanilino)-2-{3-[(oxetan-2-yl)methoxy]pyridin-4-yl}-1,5,6,7-tetrahydro-4H-pyrrolo[3,2-c]pyridin-4-one], the IC50 is 17400 nM at human Bub1 (setting [1]), 59.3 nM with Ba/F3-EGFR-insSVD and 939 nM in the assay with Ba/F3-EGFR-WT (setting [2]).
For `Cc1c(Cl)cccc1Nc1c(-c2ccncc2OCC2CCO2)[nH]c2c1C(=O)NCC2` (racemic) [Example 7, 3-(3-chloro-2-methylanilino)-2-{3-[(oxetan-2-yl)methoxy]pyridin-4-yl}-1,5,6,7-tetrahydro-4H-pyrrolo[3,2-c]pyridin-4-one] the same measures were 2630 nM, 48.2 nM and 820 nM.
For `O=C1NCCc2[nH]c(-c3ccncc3OCC3CCO3)c(Nc3cccc(Cl)c3Cl)c21` (racemic) [Example 10, 3-(2,3-dichloroanilino)-2-{3-[(oxetan-2-yl)methoxy]pyridin-4-yl}-1,5,6,7-tetrahydro-4H-pyrrolo[3,2-c]pyridin-4-one] the same measures were 13800 nM, 65.9 nM and 1040 nM.
The matching figures for `COc1c(Nc2c(-c3ccncc3OCC3CCO3)[nH]c3c2C(=O)NCC3)ccc(F)c1Cl` (racemic) [Example 13, 3-(3-chloro-4-fluoro-2-methoxyanilino)-2-{3-[(oxetan-2-yl)methoxy]pyridin-4-yl}-1,5,6,7-tetrahydro-4H-pyrrolo[3,2-c]pyridin-4-one]: above 20000 nM, 348 nM and 2300 nM.
Regarding `COc1c(F)cccc1Nc1c(-c2ccncc2OCC2(C)CCO2)[nH]c2c1C(=O)NCC2` (racemic) [Example 19, 3-(3-fluoro-2-methoxyanilino)-2-{3-[(2-methyloxetan-2-yl)methoxy]pyridin-4-yl}-1,5,6,7-tetrahydro-4H-pyrrolo[3,2-c]pyridin-4-one], the IC50 on human Bub1 (setting [1]) is 13700 nM and > 20000 nM; in the assay with Ba/F3-EGFR-insSVD, 66.7 nM; in the assay with Ba/F3-EGFR-WT (setting [2]), 2060 nM.
Take `COc1c(Cl)cccc1Nc1c(-c2ccncc2OCCC2CCO2)[nH]c2c1C(=O)NCC2` (racemic) [Example 24, 3-(3-chloro-2-methoxyanilino)-2-{3-[2-(oxetan-2-yl)ethoxy]pyridin-4-yl}-1,5,6,7-tetrahydro-4H-pyrrolo[3,2-c]pyridin-4-one]: the IC50 was found to be 2700 nM at human Bub1 (setting [1]), 17.5 nM with Ba/F3-EGFR-insSVD and 636 nM in the assay on Ba/F3-EGFR-WT (setting [2]).
The matching figures for `COc1c(Br)cccc1Nc1c(-c2ccncc2OCC2CCO2)[nH]c2c1C(=O)NCC2` (racemic) [Example 33, 3-(3-bromo-2-methoxyanilino)-2-{3-[(oxetan-2-yl)methoxy]pyridin-4-yl}-1,5,6,7-tetrahydro-4H-pyrrolo[3,2-c]pyridin-4-one]: 8060 nM, 32.8 nM and 1120 nM.
For `Cc1cccc(Nc2c(-c3ccncc3OCC3CCO3)[nH]c3c2C(=O)NCC3)c1Cl` (racemic) [Example 37, 3-(2-chloro-3-methylanilino)-2-{3-[(oxetan-2-yl)methoxy]pyridin-4-yl}-1,5,6,7-tetrahydro-4H-pyrrolo[3,2-c]pyridin-4-one] the same measures were 11700 nM, 105 nM and 942 nM.
For `Cc1c(Cl)cc(F)cc1Nc1c(-c2ccncc2OCC2CCO2)[nH]c2c1C(=O)NCC2` (racemic) [Example 40, 3-(3-chloro-5-fluoro-2-methylanilino)-2-{3-[(oxetan-2-yl)methoxy]pyridin-4-yl}-1,5,6,7-tetrahydro-4H-pyrrolo[3,2-c]pyridin-4-one], the IC50 at human Bub1 (setting [1]) amounted to 10500 nM; in the assay on Ba/F3-EGFR-insSVD, 115 nM; in the assay with Ba/F3-EGFR-WT (setting [2]) it was 2980 nM.
Take `CC1(C)COC1COc1cnccc1-c1[nH]c2c(c1Nc1cccc(Cl)c1OC(F)F)C(=O)NCC2` (racemic) [Example 71, 3-[3-chloro-2-(difluoromethoxy)anilino]-2-(3-{[3,3-dimethyloxetan-2-yl]methoxy}pyridin-4-yl)-1,5,6,7-tetrahydro-4H-pyrrolo[3,2-c]pyridin-4-one]: the IC50 at human Bub1 (setting [1]) was above 20000 nM; in the assay with Ba/F3-EGFR-insSVD, 122 nM.
As to `COc1c(Cl)cc(F)cc1Nc1c(-c2ccncc2OCC2CCO2)[nH]c2c1C(=O)NCC2` (single isomer, unassigned) [Example 67, 3-(3-chloro-5-fluoro-2-methoxyanilino)-2-(3-{[oxetan-2-yl]methoxy}pyridin-4-yl)-1,5,6,7-tetrahydro-4H-pyrrolo[3,2-c]pyridin-4-one], the IC50 at human Bub1 (setting [1]) is above 20000 nM; with Ba/F3-EGFR-WT (setting [3]), 5680 nM.
With `CC1(COc2cnccc2-c2[nH]c3c(c2Nc2cccc(Cl)c2OC(F)F)C(=O)NCC3)CCO1` (single isomer, unassigned) [Example 75, 3-[3-chloro-2-(difluoromethoxy)anilino]-2-(3-{[2-methyloxetan-2-yl]methoxy}pyridin-4-yl)-1,5,6,7-tetrahydro-4H-pyrrolo[3,2-c]pyridin-4-one], the values for the IC50 on human Bub1 (setting [4]) and in the assay on Ba/F3-EGFR-insSVD were above 20000 nM and 305 nM, respectively.
`COc1c(F)cccc1Nc1c(-c2ccncc2OCC2(C)CCO2)[nH]c2c1C(=O)NCC2` (single isomer, unassigned; (-)) [Example 20, (−)-3-(3-fluoro-2-methoxyanilino)-2-{3-[(2-methyloxetan-2-yl)methoxy]pyridin-4-yl}-1,5,6,7-tetrahydro-4H-pyrrolo[3,2-c]pyridin-4-one]: the IC50 against human Bub1 (setting [4]) was 14500 nM; at human Bub1 (setting [1]), 11800 nM and > 20000 nM.
In the case of `COc1c(F)cccc1Nc1c(-c2ccncc2OCC2OCC2(C)C)[nH]c2c1C(=O)NCC2` (single isomer, unassigned; (-)) [Example 53, (−)-2-{3-[(3,3-dimethyloxetan-2-yl)methoxy]pyridin-4-yl}-3-(3-fluoro-2-methoxyanilino)-1,5,6,7-tetrahydro-4H-pyrrolo[3,2-c]pyridin-4-one], the figures for the IC50 at human Bub1 (setting [1]) and in the assay on Ba/F3-EGFR-WT (setting [3]) were above 20000 nM and 1130 nM, respectively.
Take `COc1c(Cl)cccc1Nc1c(-c2ccncc2OCC2CCO2)[nH]c2c1C(=O)NCC2` (stereo not drawn) [Example 1, 3-(3-chlor-2-methoxyanilino)-2-[3-(oxetan-2-ylmethoxy)pyridin-4-yl]-1,5,6,7-tetrahydro-4H-pyrrolo[3,2-c]pyridin-4-on]: the IC50 came out at 25.1 nM with Ba/F3-EGFR-insSVD and 789 nM with Ba/F3-EGFR-WT (setting [2]).
Turning to `COc1c(Cl)cccc1Nc1c(-c2ccncc2OC[C@H]2CCO2)[nH]c2c1C(=O)NCC2` [Example 3, 3-(3-chloro-2-methoxyanilino)-2-(3-{[(2R)-oxetan-2-yl]methoxy}pyridin-4-yl)-1,5,6,7-tetrahydro-4H-pyrrolo[3,2-c]pyridin-4-one], the figures for the IC50 on human Bub1 (setting [1]) and in the assay on Ba/F3-EGFR-insSVD were 4510 nM and 136 nM, respectively.
The matching figures for `COc1c(F)cccc1Nc1c(-c2ccncc2OC[C@H]2CCO2)[nH]c2c1C(=O)NCC2` [Example 6, 3-(3-fluoro-2-methoxyanilino)-2-(3-{[(2R)-oxetan-2-yl]methoxy}pyridin-4-yl)-1,5,6,7-tetrahydro-4H-pyrrolo[3,2-c]pyridin-4-one]: above 13300 nM and 276 nM.
For `O=C1NCCc2[nH]c(-c3ccncc3OCC3CCO3)c(Nc3cccc4c3CCC4)c21` (stereo not drawn) [Example 36, 3-[(2,3-dihydro-1H-inden-4-yl)amino]-2-{3-[(oxetan-2-yl)methoxy]pyridin-4-yl}-1,5,6,7-tetrahydro-4H-pyrrolo[3,2-c]pyridin-4-one] the same measures were above 20000 nM and 377 nM.
